Consider 3 compounds from ChEMBL document CHEMBL2346507 (Bioorg Med Chem, 2013).

Data set [1] is described as follows: Thermodynamic solubility of the compound in Japanese pharmacopoeia disintegration solution 2 containing bile acid at pH 6.8 after 18 hrs by HPLC analysis. It counts as physicochemical. As to conditions: read-out: Therm_solubility.
A short description of data set [2]: Lipophilicity, log D of the compound at pH 7.4. The class given is physicochemical. As to conditions: buffer.
Data set [3] is described as follows: Total plasma clearance in Crl:CD (SD) albino rat at […], iv. It counts as ADME, organism-based. On the set-up: dose 0.25 mg/kg, route intravenous.
A short description of data set [4]: Oral bioavailability in cynomolgus monkey at 0.5 mg/kg. It counts as ADME, organism-based, Macaca fascicularis. As to conditions: in vivo.
Data set [5] is described as follows: Mean residence time in Crl:CD (SD) albino rat at 0.5 mg/kg, po. It counts as ADME, organism-based. As to conditions: in vivo. Details: dose 0.5 mg/kg, route oral.
Data set [6] can be described thus: AUC (0 to 48 hrs) in cynomolgus monkey at 0.5 mg/kg, po. As to conditions: plasma. On the set-up: time < 48 hr, dose 0.5 mg/kg, route oral. The class given is ADME, organism-based, Macaca fascicularis.
A short description of data set [7]: Oral bioavailability in Crl:CD (SD) albino rat at 0.5 mg/kg. The class given is ADME, organism-based. The conditions noted are these: in vivo.
The nature of data set [8]: Tmax in cynomolgus monkey at 0.5 mg/kg, po. It counts as ADME, organism-based, Macaca fascicularis. As to conditions: in vivo. On the set-up: dose 0.5 mg/kg, route oral.
Data set [9] in a line: Cmax in Crl:CD (SD) albino rat at 0.5 mg/kg, po. The class given is ADME, organism-based. Details: dose 0.5 mg/kg, route oral. The conditions noted are these: in vivo.
Data set [10] in a line: Drug uptake in athymic BALB/cAcl-nu/nu mouse lung xenografted with human A549 cells at 1 mg/kg, po measured at 8 hrs by LC/MS/MS analysis. As to conditions: read-out: Drug uptake. On the set-up: dose 1 mg/kg, route oral. It counts as ADME, organism-based. A general note: Xenograft models place foreign cells or tissue in a host animal.
Data set [11] in a line: Tmax in Crl:CD (SD) albino rat at 0.5 mg/kg, po. The conditions noted are these: in vivo. Details: dose 0.5 mg/kg, route oral. It counts as ADME, organism-based.
Data set [12] can be described thus: AUC (0 to 24 hrs) in Crl:CD (SD) albino rat at 0.5 mg/kg, po. As to conditions: plasma. Details: time < 24 hr, dose 0.5 mg/kg, route oral. The class given is ADME, organism-based.
Data set [13] in a line: Drug uptake in athymic BALB/cAcl-nu/nu mouse lung xenografted with human A549 cells at 1 mg/kg, po measured at 1 hr by LC/MS/MS analysis. It counts as ADME, organism-based. On the set-up: dose 1 mg/kg, route oral. The conditions noted are these: read-out: Drug uptake.
Data set [14] can be described thus: AUC (0 to 48 hrs) in cynomolgus monkey at […], iv. It counts as ADME, organism-based, Macaca fascicularis. Details: time < 48 hr, dose 0.25 mg/kg, route intravenous. As to conditions: plasma.
A short description of data set [15]: Volume of distribution at steady state in Crl:CD (SD) albino rat at […], iv. It counts as ADME, organism-based. Details: dose 0.25 mg/kg, route intravenous. As to conditions: in vivo, read-out: Vdss.
Data set [16] can be described thus: AUC (0 to 24 hrs) in Crl:CD (SD) albino rat at […], iv. The conditions noted are these: plasma. On the set-up: time < 24 hr, dose 0.25 mg/kg, route intravenous. It counts as ADME, organism-based.
Data set [17] is described as follows: Metabolic stability in human liver microsomes at 1 umol/L. The conditions noted are these: read-out: Stability. The class given is ADME, Microsome. Background: Liver microsomes are a subcellular fraction often used to study metabolism.
A short description of data set [18]: Mean residence time in cynomolgus monkey at 0.5 mg/kg, po. On the set-up: dose 0.5 mg/kg, route oral. As to conditions: in vivo. It counts as ADME, organism-based, Macaca fascicularis.
The nature of data set [19]: Plasma concentration in athymic BALB/cAcl-nu/nu mouse xenografted with human A549 cells at 1 mg/kg, po measured at 8 hrs by LC/MS/MS analysis. The class given is ADME, organism-based. On the set-up: dose 1 mg/kg, route oral.
Data set [20] in a line: Total plasma clearance in cynomolgus monkey at […], iv. The class given is ADME, organism-based, Macaca fascicularis. Details: dose 0.25 mg/kg, route intravenous.
The nature of data set [21]: Metabolic stability in mouse liver microsomes at 1 umol/L. The class given is ADME, Microsome. As to conditions: read-out: Stability.
A short description of data set [22]: Volume of distribution at steady state in cynomolgus monkey at […], iv. The class given is ADME, organism-based, Macaca fascicularis. The conditions noted are these: in vivo, read-out: Vdss. Details: dose 0.25 mg/kg, route intravenous.
Data set [23] in a line: Plasma concentration in athymic BALB/cAcl-nu/nu mouse xenografted with human A549 cells at 1 mg/kg, po measured at 1 hr by LC/MS/MS analysis. The class given is ADME, organism-based. On the set-up: dose 1 mg/kg, route oral.
The nature of data set [24]: Cmax in cynomolgus monkey at 0.5 mg/kg, po. The class given is ADME, organism-based, Macaca fascicularis. Details: dose 0.5 mg/kg, route oral. As to conditions: in vivo.

Values after ≈ are worked out from the molar mass of the structure shown.

`Cc1cc(C(=O)Nc2cc(Oc3ccc4nc(NC(=O)C5CC5)cn4n3)ccc2C)n(C)n1` [TAK-593]: the solubility thermodynamic at 18 h in [1] worked out at 38 µg/mL (≈ 85.3 µM). Also, the logD in data set [2] came out at 2.24. Moreover, the figures for the clearance in data set [3] and in [20] were 7.3 mL/min/kg and 3.18 mL/min/kg, respectively. Besides, the results for the bioavailability in [4] and in [7] were 57.6% and 19.8%, respectively. The MRT is 3.3 h in [5] and 11 h in [18]. Besides, the AUC(0-t) at 48 h was 1510 ng·h/mL in [6] and 1310 ng·h/mL in data set [14]. Besides, the Tmax in data set [8] was determined as 2.8 h; in [11], 1.3 h. In addition, the values for the Cmax in data set [9] and in data set [24] were 56 ng/mL and 129 ng/mL, respectively. The concentration at 8 h is below 15 ng/g in data set [10] and below 3 ng/mL in [19]. In addition, the AUC(0-t) at 24 h in data set [12] was found to be 226 ng·h/mL; in data set [16] it was 571 ng·h/mL. Moreover, the concentration at 1 h is 242 ng/g in data set [13] and 451 ng/mL in data set [23]. For the same compound, the results for the Vd in data set [15] and in data set [22] were 0.471 L/kg and 1.03 L/kg, respectively. For the same compound, the results for the microsomal CLint at 1 µM in data set [17] and in data set [21] were 2 µL/min/mg and 31 µL/min/mg, respectively.
For the compound `Cc1cc(C(=O)Nc2cccc(Oc3ccc4nc(NC(=O)C5CC5)cn4n3)c2)n(C)n1`, the solubility thermodynamic at 18 h in data set [1] was 3.7 µg/mL (≈ 8.58 µM). Moreover, in [2], the logD was 2.28. Also, the microsomal CLint at 1 µM in data set [17] worked out at 6 µL/min/mg; in data set [21] it was 43 µL/min/mg.
For `Cc1cc(C(=O)Nc2cc(Oc3ccc4nc(NC(=O)C5CC5)cn4n3)ccc2F)n(C)n1`, the solubility thermodynamic at 18 h in data set [1] was 14 µg/mL (≈ 31.1 µM). For the same compound, in [2], the logD was found to be 2.21. Moreover, the figures for the microsomal CLint at 1 µM in [17] and in data set [21] were 9 µL/min/mg and 54 µL/min/mg, respectively.

In general, logD refers to the decadic logarithm of the distribution of all forms, ionised or not, between an organic phase and buffer at a given pH. As usually defined, the clearance is a measure of how efficiently the substance is removed, as volume per time. Broadly, the bioavailability is dose-corrected exposure relative to a reference, in per cent. Usually MRT stands for a mean duration of stay, worked out from the concentration-time curve. For orientation: AUC(0-t) means the area under the concentration-time curve up to a stated or last time point. The Tmax is the time at which the peak concentration occurs. What is called Cmax is the maximum level reached in the sampled fluid or tissue.
